# Source: patent US20210332436A1, “STEM CELL-BASED MULTIPLEX METHODS AND COMPOSITIONS” (MEMORIAL SLOAN-KETTERING CANCER CENTER, priority 2018, published 2021)
# How the values were obtained:
# [1] = test system: day 35 MIX30 PFC cultures; test: Multiplex PFC WNT response assay (CHIR99021 treatment of pooled PFC cultures, stem cell proliferation/enrichment readout); format: cell-based, human; conditions: 3 μM for 10 days, vs untreated
# Description: In addition to probing developmental phenotypes related to cell fate specification and proliferation, the present multiplex platform also allows us to evaluate the cell-type specific activity of key molecular pathways. The WNT/βcatenin pathway is a critical regulator of stem cell proliferation and neurogenesis during cortical development (Hirabayashi et al., Development 131, 2791-2801 (2004); Munji et al., J Neurosci 31, 1676-1687 (2011); Chenn, Organogenesis 4, 76-80 (2008)) and is a central node among a network of autism-related genes (Packer, Mol Psychiatry, (2016); Krumm et al., Trends Neurosci 37, 95-105 (2014); Gilman et al., Neuron 70, 898-907 (2011)). It was therefore tested autism lines for the ability to respond to WNT/βcatenin signaling by treating day 35 MIX30 PFC cultures with the GSK3α/β inhibitor CHIR99021 (3 μM) for 10 days, using stem cell proliferation as an initial readout of WNT activity (Kim et al., Nat Neurosci 12, 1390-1397 (2009)) (FIG. 3a). […] Lineage specificity of the WNT-response phenotype was assessed by differentiating the MIX30 library to CD49d^+ cranial neural crest (CNC) precursors ([…] et al., Nature 531, 105-109 (2016)), whose specification is dependent on WNT/β catenin activity (Dorsky et al., Nature 396, 370-373 (1998)) (FIG. 3c, FIGS. 10d-10f). […] DNA was quantified using a fluorometer (Qubit 3.0, Thermo Q33216). […]
# Day 20 PFC cultures = test: Single genotype analysis of WNT responsiveness during PFC development (proliferation Ki67/DAPI and cell-cycle re-entry Ki67+EdU+/Ki67+); format: cell-based, human
# Experimental: FIGS. 15a-15d provide additional data related to WNT assays. FIG. 15a provides PFC WNT response of autism lines relative to a negative control (UMOD). WNT response is measured by relative change in stem cell enrichment versus an untreated control. Red bars indicate significant increases or decreases in WNT response (FDR<0.05). FIG. 15b provides efficiency of neural crest specification relative to a negative control (UMOD). Red bars indicate significant increases or decreases in WNT response (FDR<0.05). FIG. 15c provides schematic of quantification for zebrafish jaw development at 7 dpf. A straight line is drawn from the top of the eyes, and second line is then drawn to the middle of the upper jaw. The angle between the two lines (0) is measured using ImageJ. A cut-off value of −1 s.d. (red line) from the mean (green line) of the no injection group was used to define hypomorphic animals. Graphs show raw data that underlie the hypomorph quantification in FIG. 3e. p<0.0001 for group differences calculated by non-parametric Kruskall-Wallis test, followed by dunn's test for multiple comparisons CTNNB1 p=0.0007, ANKRD11 p=0.0013, CUL3 p=0.0073, KMT2C p=0.0007. dpf, Days post fertilization. FIG. 15d provides a single genotype analysis of WNT responsiveness during PFC development. […] Day 20 PFC cultures were treated with CHIR99021 (0.6 μM) for 2 days or left untreated. At day 22, cultures were pulsed with EdU using the EdU Click-iT system according to manufacturer protocol (ThermoFisher Scientific C10640). Briefly, cells were treated with EdU for 1 hour, dissociated with Accutase for 30 minutes at 37 C, and passaged onto laminin/fibronectin coated plates at a density of 200,000-400,000 cells/cm2 in the presence of ROCK inhibitor (Y-27632, 10 μM, Tocris 1254). Cell were fixed 18 hours later and fixed for immunocytochemistry. ImageJ was used for cell counting. Images were thresholded to define individual cells (particles) and cells were counted using the analyze particle function.
# [2] = 5/5 class 1 lines compared to MEL1, 0.6 μM for 2 days
structure (smiles),measurement,setting,value
Cc1c[nH]c(-c2cnc(NCCNc3ccc(C#N)cn3)nc2-c2ccc(Cl)cc2Cl)n1 [CHIR99021],stem cell proliferation (readout of WNT activity),[1],enhanced stem cell proliferation
same,"proliferation response to CHIR (CHIR/Baseline, Ki67/DAPI)",Day 20 PFC cultures; [2],blunted proliferation response
same,rates of cell-cycle re-entry (Ki67+EdU+/Ki67+) in response to CHIR,Day 20 PFC cultures; [2],blunted response
same,rates of cell-cycle re-entry (Ki67+EdU+/Ki67+) in response to CHIR,"Day 20 PFC cultures; control lines, 0.6 μM for 2 days",increased rates of cell-cycle re-entry
